The source of these data is a melting point compilation (Tetko et al.; mined from patent text by program, amines drawn as free bases though some values may be those of a salt).

Consider `COC(=NC(=O)c1ccc(F)cc1)N1Cc2ccccc2-c2ccccc2C1`, for which the melting point was 136 to 138 °C.

The compound `Cc1ccc(-c2c(N)ncnc2Cl)cc1` registered a melting point of 168 to 171 °C.

Consider `CN(C)c1nnc(NN)c(=O)[nH]1`, for which the melting point lay in the range of 264 to 266 °C.

On to `CCC(CC)CC(=N)NC(=S)Nc1ccc(Cl)cc1`, for which the melting point lay within 116 to 118 °C.

The compound `CC(C)(C)c1ccc(S(=O)(=O)N2c3ccccc3C[C@H]2C(=O)NCc2ccc(NCC(=O)O)cc2)cc1` gave a melting point of 110 °C.

Regarding `Cc1nn(C2CCOC2)c(N)c1C#N` (stereo unspecified), the melting point lay within 134 to 135 °C.

Compound `Cc1nc(COc2ccc3nc(N)c4nc5n(c4c3c2)C(C)COC5)cs1` (stereo unspecified) returned a melting point of 105 to 107 °C.

Compound `CC(CCC(=O)C(C)(C)O)C1CCC2C3=CC=C4CC(O)CCC4(C)C3CCC21C` (stereo unspecified) registered a melting point of 150 to 152 °C.

On to `COc1cc(C2=CCN(S(=O)(=O)C(C)(C)C(=O)NO)CC2)ccc1-c1ccccc1`, for which the melting point lay in the range of 156 to 158 °C.

In turn, `CC(C)c1cc(C(C)C)c(-c2csc(Br)n2)c(C(C)C)c1` returned a melting point of 236 °C.

Regarding `CCCC=CCC(CC(=O)Nc1cc(Cc2n[nH]c(=O)c3ccccc23)ccc1F)C(=O)O` (stereo unspecified), the melting point is 179 to 181 °C.

For `COC(=O)CCC(C)C(=O)N1CCC[C@H]1C(=O)O` (stereo partly specified), the melting point is 174 to 175 °C.

For the compound `CCOC(=O)C1CC(=O)C(N=Nc2ccc(Br)cc2)=C(O)C1` (stereo unspecified), the melting point fell in the range of 169 to 171 °C.

Compound `CCOCc1nc2c(N)nc3ccccc3c2n1CC1(N)CCOCC1` yielded a melting point of 53 to 63 °C.

`CC12C=CC(O)CC1=CCC1C2CCC2(C)C1CCC21OCCO1` (stereo unspecified) showed a melting point of 138 to 140 °C.

`O=C(C#Cc1ccc(-c2ccc(Cl)cc2)cc1)Nc1ccc(CNCC2CCCCC2)cc1`: the melting point was 205 to 210 °C.

`CCOc1ccc(Nc2ncc3cc(-c4c(Cl)cccc4Cl)c(=O)n(CC)c3n2)cc1` had a melting point of 192 to 194 °C.

For the compound `CCC(C)(N=NC(C)(CC)NC(=O)Nc1ccccc1)NC(=O)Nc1ccccc1` (stereo unspecified), the melting point lay within 118 to 120 °C.

As to `O=c1c2cccnc2n(-c2cccc([N+](=O)[O-])c2)c(=O)n1Cc1ccncc1`, the melting point is 207 to 209 °C.

`CC(C)c1ccc(N(Cc2cnn(C)c2)C(=O)C2CCCc3c(O)cccc32)cc1` (stereo unspecified): the melting point is 215 °C.

`CCCCOCCOc1ccc(-c2ccc3c(c2)C=C(C(=O)Nc2ccc(S(=O)Cc4cncn4CCC)cc2)CCCN3CC(C)C)cc1` (single isomer, unassigned; (-)) returned a melting point of 120 to 122 °C.

The compound `Cc1oc(-c2ccccc2)nc1COc1ccc(CON=C(CCCC(C)(C)C(=O)O)c2ccccc2)cc1` showed a melting point of 111 to 112 °C.

`CC(C)N1CCC(C(=O)OC2c3ccccc3C(=O)N2c2ccc3ccc(Cl)nc3n2)CC1` (stereo unspecified) had a melting point of 184 °C.

For the compound `COC(=NS(=O)(=O)c1nc(-c2ccccc2)ns1)C(C)C`, the melting point fell in the range of 123 to 124 °C.

As for `CC(C)CN1C(=O)C(C)(C)C(=O)Nc2ccc(C=O)cc21`, the melting point was 208 to 211 °C.

In turn, `Cc1oc(-c2ccccc2)nc1CCOc1ccc(COc2nn(C)cc2CC(=O)O)cc1` showed a melting point of 148 to 149 °C.

`CNC(=NC#N)NCCSCc1csc(NC(N)=NC(=O)c2ccccc2)n1` yielded a melting point of 179 to 181 °C.

On to `CN1C(=O)CCC2(C)c3ccc(Sc4ccccn4)cc3CCC12` (single isomer, unassigned; (+)), for which the melting point lay within 174 to 176 °C.

`O=C(O)CCC/C=C\CN1C(=O)c2ccccc2C1=O` displayed a melting point of 86 to 88 °C.

As for `COc1cc(OC)cc(N2CCN(C(=S)Nc3cc4c(nc3OC)CCC4)CC2)c1`, the melting point was 169 to 170 °C.

`CC(=O)NC1(c2ccc(CN3CCN(c4ncccn4)CC3)cc2)CC1` registered a melting point of 145 to 146 °C.

As for `COc1cc(C(=O)Nc2cc(-c3c(-c4ccc(F)c(C)c4)nc4cccnn34)ccn2)ccc1F`, the melting point lay within 217 to 218 °C.

As for `CN(C)N=Cc1cn(C)nc1-c1ccc([N+](=O)[O-])o1`, the melting point is 164 to 165 °C.

The compound `CC1OC(n2cc(F)c(NC(=O)c3ccoc3)nc2=O)C(O)C1O` (stereo unspecified) showed a melting point of 173 to 174 °C.

In the case of `CCCN1CCC(=O)C(C(c2ccccc2)c2ccccc2)C1` (stereo unspecified), the melting point lay in the range of 72 to 76 °C.

As for `N#Cc1c(Cl)csc1NC=O`, the melting point stood at 241 °C.

`COCCCn1c(C(N)=O)cc2c3c(c(-c4ccccc4Cl)cc21)C(=O)NC3=O` had a melting point of 260 to 261 °C.

`CC1(c2cccc(N)c2)C2CN(Cc3ccccc3)C(=O)C21` (stereo unspecified) showed a melting point of 150 to 151 °C.

`CCOC(=O)C1=C(COCCNC(=O)c2cccnc2)NC(C)=C(C(=O)OC)C1c1ccccc1Cl` (stereo unspecified): the melting point lay within 81 to 84 °C.

In the case of `CCn1ncc2cc3c(nc21)C(Cl)c1ccccc1CC3` (stereo unspecified), the melting point fell in the range of 107 to 110 °C.

As for `Oc1ccc(-c2nn(C3CCCCC3)c3c(Cl)cccc23)cc1`, the melting point was in the range of 176 to 177 °C.

With `COc1cccc(CN2CCc3cc(OCc4ccccc4)c(OC)cc3C2)c1`, the melting point lay within 71 to 72 °C.

Compound `CS(=O)(=O)c1ccc(C(CC2CCCC2)C(=O)Nc2nccs2)cc1` (stereo unspecified) showed a melting point of 61 to 63 °C.

`CON=C(C)c1ccc(NS(C)(=O)=O)c(Sc2ccc(F)cc2F)c1`: the melting point was in the range of 110 to 111 °C.

In the case of `CCCc1c(O)cccc1Oc1ccccc1C#N`, the melting point lay within 103 to 107 °C.

For `Cn1c(-c2ccccc2)cc(=O)c2cc(C(=O)O)ccc21`, the melting point was over 30 °C.

In turn, `CCCCc1c(CO)ccc2c(OC)cccc12` had a melting point of 100 to 102 °C.

Compound `CCOC(=O)c1cc(=O)c2c(OCC(O)COc3cccc4occc(=O)c34)cccc2o1` (stereo unspecified) displayed a melting point of 155 to 159 °C.

For `O=C(N[C@@H](Cc1c[nH]c2ccccc12)C(=O)O)C(CS)C(F)(F)F` (stereo partly specified), the melting point lay within 144 to 147 °C.

`Clc1ccc2c(c1)N(c1ncnc3cc(Cl)ccc13)CC2` showed a melting point of 189 °C.

The compound `N#CCCn1c(C(=O)OCc2ccccc2)cc2ccccc21` returned a melting point of 98 to 100 °C.

Compound `CCCc1nc(NC(=N)N)sc1-c1cccc([N+](=O)[O-])c1` displayed a melting point of 137 to 139 °C.

Take `CSc1ccc(-c2c(Cl)nc(Cl)nc2-c2ccccc2)cc1`: the melting point lay in the range of 88 to 90 °C.

For `COCCOc1ccc(/C=C/C(=O)NS(=O)(=O)NCCc2ccccc2)c(Oc2ncc(C(F)(F)F)cc2Cl)c1`, the melting point was 85 to 85.5 °C.

`O=C(NO)[C@H]1CN(c2ccc(N3CCOCC3)c(F)c2)C(=O)O1` had a melting point of 141 to 143 °C.

For `O=C1c2c(Cl)ccc(Cl)c2-c2nn(CCNCCO)c3ccc(NCCNCCO)c1c23`, the melting point stood at 196 °C.

`C=CC(=O)OCCOC(=O)Cc1cc(O)n2ncnc2n1` registered a melting point of 108 to 109 °C.

Compound `CCN1COc2cc3c(=O)n(CCc4cccc(F)c4)nnc3cc2C1=O` had a melting point of 161 to 163 °C.

`O=[N+]([O-])c1c(Br)nn(CCO)c1NCCO` came in with a melting point of 132 to 134 °C.

`CCCCCC(=O)c1c(C)n(C(C)=O)c(=O)n1C(C)=O` had a melting point of 71 to 72 °C.

On to `CCCNC(=O)C(C)=Cc1ccc2c(c1)c(Cc1ccc(C(=O)O)cc1OC)cn2C`, for which the melting point was 89 to 95 °C.

`Cc1ccnc(NC(c2ccc(C(F)(F)F)cc2)c2ccc3cccnc3c2O)c1` (stereo unspecified) gave a melting point of 104 to 107 °C.

Turning to `CC(C)(C)c1cc(NS(=O)(=O)c2ccc(N3CCNC3=O)cc2)cc(C(C)(C)C)c1`, the melting point is 276 to 278 °C.

With `COc1ccc(Nc2cc3c(cc2Nc2ccc(OC)cc2)C(=O)NC3=O)cc1`, the melting point was 191 to 193 °C.

As to `Cc1ccc2c(c1)[nH]c(=O)n2CCO`, the melting point was determined as 159 °C.

`COC(=O)C1(CCCCl)Oc2ccccc2CCC1O` (stereo unspecified) registered a melting point of 107 to 109 °C.

`CNc1nc(C)c(C(=O)c2ccc(N)c([N+](=O)[O-])c2)s1` yielded a melting point of 260 to 261 °C.

The compound `CC(=O)N1CCN(c2ccc(-c3ccn[nH]3)cc2)CC1` registered a melting point of 257 to 259 °C.

The compound `COc1cc2c(cc1-c1ncco1)-c1c(-c3cncs3)c3c(n1CC2)C(=O)N(C(C)(C)C)CCCC3` came in with a melting point of 205 to 207 °C.

In turn, `CCOC(=O)COc1ccc(C(=O)Nc2cc(Cl)ccc2Sc2ccccc2-c2nnn[nH]2)cc1` displayed a melting point of 206 to 208 °C.

`CCCCCCCCCCCCN(CCCCCCCCCCCC)c1ccccc1C1=c2ccc(=C3C(=O)c4ccccc4C3=O)cc2OC1=O`: the melting point was found to be 155 °C.

Compound `C=COCCOc1ccc(Oc2ccccc2)cc1` gave a melting point of 51 to 52 °C.

The compound `COC(=O)C1OC(OC(=O)C(C)C)C(OC(=O)C(C)C)C(OC(=O)C(C)C)C1OC(=O)C(C)C` (stereo unspecified) displayed a melting point of 127 °C.

Take `COC(=O)c1cc(I)c[nH]1`: the melting point was in the range of 77 to 78 °C.

With `CNS(=O)(=O)c1cc(C(=O)c2c(C)[nH]c3ccccc23)ccc1Cl`, the melting point came out at 246 °C.

For the compound `FC(F)(F)c1cc(CO[C@@H]2CCCN(Cc3nc4ccccc4o3)[C@@H]2c2ccccc2)cc(C(F)(F)F)c1` (relative stereo), the melting point was 95 to 97 °C.

Turning to `O=c1oc2ccc(-c3ccc(F)cc3F)cc2c(=O)n1-c1cccc(C(F)(F)F)c1`, the melting point was 165 to 166 °C.

With `CC(C)CNC(=O)/C=C/C=C/CCCCCCOCc1cccc(C(F)(F)F)c1`, the melting point lay within 48 to 50 °C.

The compound `CC1=CC(=O)C(C(=O)Cc2ccccc2)C(=O)O1` (stereo unspecified) gave a melting point of 150 to 151 °C.

On to `N#Cc1cnc2cc(Cl)c([N+](=O)[O-])cc2c1Cl`, for which the melting point fell in the range of 143 to 153 °C.

The compound `CCCCCC(CC(=O)O)c1cc(C(=O)OC)c(OC)cc1OC` (stereo unspecified) gave a melting point of 106 to 107 °C.

For the compound `Cc1cc(C)nc(NC(=O)Cc2c(Cl)sc3ccccc23)c1`, the melting point is 123 to 124 °C.

In turn, `CC(C)CCC(O)C(C(=O)C(Cc1c[nH]cn1)N(C)C(=O)C(Cc1ccccc1)OC(=O)N(C)CCN(C)C(=O)C(C)C)C(N)C1CCCCC1` (stereo unspecified) showed a melting point of 68 to 72 °C.

As for `CCOC(=O)c1[nH]c2c(C)ccc(Cl)c2c1C`, the melting point is 118 to 119 °C.

Regarding `O=C(O)c1cccc2c(-c3ccccc3)coc12`, the melting point was 220 to 222 °C.

Compound `CC(C)(C)c1cn(Cc2ccccc2)c([C@@H](Cc2c[nH]c3ccccc23)NCc2ccccc2)n1` showed a melting point of 60 to 62 °C.

A word on the melting point: it is the temperature of the solid-liquid transition.
